The series in a line: In vivo metabolite identification (MetID) after concomitant omeprazole/D3-omeprazole administration, mouse plasma and brain. Details: species or system Male ICR mice; key to D, i.p. route (brain): found / not found / E, i.v. route (brain): found / not found / F, p.o. route (brain): found / not found / A, i.p. route (plasma): found / not found / B, i.v. route (plasma): found / not found / C, p.o. route (plasma): found / not found: O, found; -, not found. Particulars: for D, i.p. route (brain): found / not found / A, i.p. route (plasma): found / not found: 50 mg/kg omeprazole/D3-omeprazole 1:1, i.p.; for D, i.p. route (brain): found / not found / E, i.v. route (brain): found / not found / F, p.o. route (brain): found / not found: mouse brain; for A, i.p. route (plasma): found / not found / B, i.v. route (plasma): found / not found / C, p.o. route (plasma): found / not found: mouse plasma; for E, i.v. route (brain): found / not found / B, i.v. route (plasma): found / not found: 50 mg/kg omeprazole/D3-omeprazole 1:1, i.v.; for samples (matrix/route) in which the metabolite was observed: 50 mg/kg omeprazole/D3-omeprazole 1:1, mice; for F, p.o. route (brain): found / not found / C, p.o. route (plasma): found / not found: 50 mg/kg omeprazole/D3-omeprazole 1:1, p.o. How it is done: The LC–QTOF-MS system was consisted of a chromatographic pump system (Shimadzu CBM–20A/LC–20AD, Shimadzu Scientific Instruments, Riverwood Dr, Columbia, SC, USA), an auto-sampler system (Eksigent CTC HTS PAL, Sciex, Redwood City, CA, USA), equipped with a mass spectrometer (TripleTOF^TM 5600, Sciex, Redwood City, CA, USA). Chromatographic separation was performed using reversed-phase C18 columns (Phenomenex® Kinetex XB–C18 column; 2.1 × 50 mm for bioanalytical sample quantification and 2.1 × 100 mm for MetID). The HPLC mobile phase was comprised of distilled/deionized water containing 0.1% formic acid (phase A) and acetonitrile containing 0.1% formic acid (phase B) with a binary gradient program. The LC–gradient was optimized as follows: 3.2 min for the quantification (0–0.5 min, 5% B; 0.5–1.2 min, 5–95% B; 1.2–1.4 min, 95% B; 1.4–1.5 min, 95–5% B; and 1.5–3.2 min, 5% B with a flow rate of 0.4 mL/min) and 23 min for MetID (0–1 min, 5% B; 1–13 min, 5–40% B; 13–13.5 min, 40–45% B; 13.5–15.5 min, 45–90% B; 15.5–17.9 min, 90% B; 17.9–18 min, 90–5% B; and 18–23 min, 5% B with a flow rate of 0.3mL/min). In particular, the LC separation conditions for MetID studies were optimized where the peaks of metabolites were separated as much as possible. This was critical in searching for any relevant metabolites originated from omeprazole with unique isotope ratio 1:1.
The single reaction monitoring at high sensitivity option (SRMHS) in the product ion scan was used for the quantification of PK as well as MetID samples. The information-dependent analysis (IDA) method including high resolution TOF full scan and seven unique information-dependent product ion scans were performed for the MetID study. The ion spray voltage (ISVF) was set at 5500 V. The source gas (nebulizer [GS1, ion source gas1] and heater [GS2, ion source gas2]) was set at 50 psi, and the source temperature was set at 500 °C with the curtain gas (CUR) flow of […].
A separate in vivo MetID study was conducted. A total of 50 mg/kg (1:1 ratio of omeprazole and D3–omeprazole) was given through each administration route (p.o., i.v. and i.p.). After administration, blood and brain tissue sampling was conducted in the same manner as the previous PK studies. The collected samples were stored at −80 °C until analysis.
The plasma samples obtained from the study dosed with 50 mg/kg were collected according to the Hamilton pooling method. The pooled plasma sample (a total of 274 μL) was transferred to a clean tube, and 1 mL of ACN was added. The pretreated samples were centrifuged at 10,000 rpm for 5 min, and 1100 μL of the supernatant was evaporated to dryness under vacuum in a centrifugal evaporator (CVE–3110, Eyela, Tokyo, Japan) connected to cold trap (UT–1000, Eyela, Tokyo, Japan). The dried residue was re-constituted, shaken and centrifuged. After centrifugation, the supernatant was transferred to an LC–vial for analysis.
The metabolites of omeprazole were investigated using an LC–QTOF–MS assay. […] In this case, any metabolites having a mass difference of 3 daltons between omeprazole and its stable isotope D3–omeprazole were thoroughly searched as possible drug-related metabolites.

Results on six compounds are retold here after article PMC7400457, “Profiling and Identification of Omeprazole Metabolites in Mouse Brain and Plasma by Isotope Ratio-Monitoring Liquid Chromatography-Mass Spectrometric Method” (Life, 2020).

In the case of `COc1ccc2[nH]c(SCC(NC(C)=O)C(=O)O)nc2c1` (stereo not drawn) [Metabolite M1], the “D, i.p. route (brain): found / not found” value is reported as “-”; the “A, i.p. route (plasma): found / not found” value is listed as “O”; the “E, i.v. route (brain): found / not found” value was “-”; the “B, i.v. route (plasma): found / not found” value is recorded as “O”. The “samples (matrix/route) in which the metabolite was observed” value (from here on “samples (matrix/route)”) is “plasma–IV route and plasma-IP route samples”; the “F, p.o. route (brain): found / not found” value was “-”; the “C, p.o. route (plasma): found / not found” value is recorded as “-”.
Take `COc1c(C)cnc(C[S+]([O-])c2nc3cc(O[C@@H]4O[C@H](C(=O)O)[C@@H](O)[C@H](O)[C@H]4O)ccc3[nH]2)c1C` (stereo partly drawn) [Metabolite M2]: the “D, i.p. route (brain): found / not found” value was “O”; the “A, i.p. route (plasma): found / not found” value is “O”; the “E, i.v. route (brain): found / not found” value is recorded as “O”; the “B, i.v. route (plasma): found / not found” value is listed as “O”. For the same compound, the “samples (matrix/route)” value is given as “all samples except the brain–PO route sample”; the “F, p.o. route (brain): found / not found” value is reported as “-”; the “C, p.o. route (plasma): found / not found” value is “O”.
On to `COc1ccc2[nH]c([S+]([O-])Cc3ncc(C)cc3C)nc2c1` (stereo not drawn) [Metabolite M11], for which the “D, i.p. route (brain): found / not found” value is listed as “O”; the “A, i.p. route (plasma): found / not found” value is reported as “O”; the “E, i.v. route (brain): found / not found” value is given as “O”; the “B, i.v. route (plasma): found / not found” value is reported as “O”. Moreover, the “samples (matrix/route)” value was “all plasma samples (all dosing routes) and all brain samples (all dosing routes)”; the “F, p.o. route (brain): found / not found” value was “O”; the “C, p.o. route (plasma): found / not found” value is “O”.
As to `COc1ccc2nc(S(=O)(=O)Cc3ncc(C)c(OC)c3C)[nH]c2c1` [Metabolite M14, omeprazole sulfone], the “D, i.p. route (brain): found / not found” value is given as “O”; the “A, i.p. route (plasma): found / not found” value is recorded as “O”; the “E, i.v. route (brain): found / not found” value was “O”; the “B, i.v. route (plasma): found / not found” value is “O”. Further, the “samples (matrix/route)” value was “all plasma samples (all dosing routes) and all brain samples (all dosing routes)”; the “F, p.o. route (brain): found / not found” value is on record as “O”; the “C, p.o. route (plasma): found / not found” value was “O”.
Regarding `COc1ccc2[nH]c(SCc3ncc(C)c(OC)c3C)nc2c1` [Metabolite M15, omeprazole sulfide], the “D, i.p. route (brain): found / not found” value is reported as “O”; the “A, i.p. route (plasma): found / not found” value is reported as “O”; the “E, i.v. route (brain): found / not found” value was “O”; the “B, i.v. route (plasma): found / not found” value is recorded as “O”. Besides, the “F, p.o. route (brain): found / not found” value was “O” and the “C, p.o. route (plasma): found / not found” value is listed as “O”. In addition, the “samples (matrix/route)” value (50 mg/kg) was “all plasma samples (all dosing routes) and all brain samples (all dosing routes)”.
With `COc1c(C)cnc(CSc2nc3cc(O)ccc3[nH]2)c1C` [Metabolite M17], the “D, i.p. route (brain): found / not found” value is “O”; the “A, i.p. route (plasma): found / not found” value was “-”; the “E, i.v. route (brain): found / not found” value is given as “O”; the “B, i.v. route (plasma): found / not found” value is on record as “-”. In addition, the “samples (matrix/route)” value was “only from the brain–IP route and brain–IV route”; the “F, p.o. route (brain): found / not found” value is “-”; the “C, p.o. route (plasma): found / not found” value is listed as “-”.
